# Data: ChEMBL document CHEMBL3885881, “DrugMatrix”
# Organism: Rattus norvegicus
# Assay: DrugMatrix - Regimen: Daily Repeat
# Type: toxicity, organism-based, Sprague-Dawley
# Parameters: regimen Daily Repeat, gender Male, age 6-8 weeks
# Details: in vivo, po, 500 mg/kg, route oral GAVAGE, dose level High, vehicle 100 % WATER; for ABSOLUTE BASOPHIL / ABSOLUTE EOSINOPHIL / ABSOLUTE LYMPHOCYTE / ABSOLUTE MONOCYTE / ABSOLUTE SEGMENTED NEUTROPHIL / BASOPHIL / EOSINOPHIL / ERYTHROCYTE COUNT / HEMATOCRIT / HEMOGLOBIN / LEUKOCYTE COUNT / LYMPHOCYTE / MEAN CORPUSCULAR HEMOGLOBIN / MEAN CORPUSCULAR HEMOGLOBIN CONCENTRATION / MEAN CORPUSCULAR VOLUME / MONOCYTE / NEUTROPHIL / NUCLEATED RED BLOOD CELLS / PLATELET COUNT: tissue Blood; for ALANINE AMINOTRANSFERASE / ALBUMIN / ALKALINE PHOSPHATASE / ASPARTATE AMINOTRANSFERASE / BLOOD UREA NITROGEN / CARBON DIOXIDE / CHLORIDE / CHOLESTEROL / CREATINE PHOSPHOKINASE / CREATININE / GLUCOSE / LACTATE DEHYDROGENASE / LIPASE / PHOSPHORUS / POTASSIUM / SODIUM / TOTAL BILIRUBIN / TOTAL PROTEIN / URIC ACID: tissue Plasma
smiles,measurement,setting,value
Cc1c(O)c(=O)ccn1C [DEFERIPRONE],ABSOLUTE BASOPHIL,"72 h, time 3 day",0 CELLS/uL
same,ABSOLUTE EOSINOPHIL,"72 h, time 3 day",97 CELLS/uL
same,ABSOLUTE LYMPHOCYTE,"72 h, time 3 day",8507 CELLS/uL
same,ABSOLUTE MONOCYTE,"72 h, time 3 day",223 CELLS/uL
same,ABSOLUTE SEGMENTED NEUTROPHIL,"72 h, time 3 day",223 CELLS/uL
same,BASOPHIL,"72 h, time 3 day",0%
same,EOSINOPHIL,"72 h, time 3 day",1%
same,ERYTHROCYTE COUNT,"72 h, time 3 day",4.97 x10E6/uL
same,HEMATOCRIT,"72 h, time 3 day",30.95%
same,HEMOGLOBIN,"72 h, time 3 day",11.7 G/DL
same,LEUKOCYTE COUNT,"72 h, time 3 day",9.05 x10E3/uL
same,LYMPHOCYTE,"72 h, time 3 day",94%
same,MEAN CORPUSCULAR HEMOGLOBIN,"72 h, time 3 day",23.55 pg
same,MEAN CORPUSCULAR HEMOGLOBIN CONCENTRATION,"72 h, time 3 day",37.8 G/DL
same,MEAN CORPUSCULAR VOLUME,"72 h, time 3 day",62.15 fL
same,MONOCYTE,"72 h, time 3 day",2.5%
same,NEUTROPHIL,"72 h, time 3 day",2.5%
same,NUCLEATED RED BLOOD CELLS,"72 h, time 3 day",0 /100WBC
same,PLATELET COUNT,"72 h, time 3 day",1456.5 x10E3/uL
same,ALANINE AMINOTRANSFERASE,"72 h, time 3 day",39 u/L
same,ALBUMIN,"72 h, time 3 day",4.4 G/DL
same,ALKALINE PHOSPHATASE,"72 h, time 3 day",373 u/L
same,ASPARTATE AMINOTRANSFERASE,"72 h, time 3 day",80 u/L
same,BLOOD UREA NITROGEN,"72 h, time 3 day",18.5 mg/dL
same,CARBON DIOXIDE,"72 h, time 3 day",22.5 mmol/L
same,CHLORIDE,"72 h, time 3 day",105.5 MEQ/L
same,CHOLESTEROL,"72 h, time 3 day",119 mg/dL
same,CREATINE PHOSPHOKINASE,"72 h, time 3 day",322.5 u/L
same,CREATININE,"72 h, time 3 day",0.18 mg/dL
same,GLUCOSE,"72 h, time 3 day",131 mg/dL
same,LACTATE DEHYDROGENASE,"72 h, time 3 day",239 u/L
same,LIPASE,"72 h, time 3 day",10 u/L
same,PHOSPHORUS,"72 h, time 3 day",11.5 mg/dL
same,POTASSIUM,"72 h, time 3 day",6.21 MEQ/L
same,SODIUM,"72 h, time 3 day",143.8 MEQ/L
same,TOTAL BILIRUBIN,"72 h, time 3 day",0.25 mg/dL
same,TOTAL PROTEIN,"72 h, time 3 day",6 G/DL
same,URIC ACID,"72 h, time 3 day",1.45 mg/dL
same,ABSOLUTE BASOPHIL,"120 h, time 5 day",0 CELLS/uL
same,ABSOLUTE EOSINOPHIL,"120 h, time 5 day",0 CELLS/uL
same,ABSOLUTE LYMPHOCYTE,"120 h, time 5 day",9110 CELLS/uL
same,ABSOLUTE MONOCYTE,"120 h, time 5 day",78 CELLS/uL
same,ABSOLUTE SEGMENTED NEUTROPHIL,"120 h, time 5 day",412 CELLS/uL
same,BASOPHIL,"120 h, time 5 day",0%
same,EOSINOPHIL,"120 h, time 5 day",0%
same,ERYTHROCYTE COUNT,"120 h, time 5 day",5.3 x10E6/uL
same,HEMATOCRIT,"120 h, time 5 day",33.8%
same,HEMOGLOBIN,"120 h, time 5 day",12.93 G/DL
same,LEUKOCYTE COUNT,"120 h, time 5 day",9.6 x10E3/uL
same,LYMPHOCYTE,"120 h, time 5 day",95.33%
same,MEAN CORPUSCULAR HEMOGLOBIN,"120 h, time 5 day",24.43 pg
same,MEAN CORPUSCULAR HEMOGLOBIN CONCENTRATION,"120 h, time 5 day",38.27 G/DL
same,MEAN CORPUSCULAR VOLUME,"120 h, time 5 day",63.8 fL
same,MONOCYTE,"120 h, time 5 day",0.67%
same,NEUTROPHIL,"120 h, time 5 day",4%
same,NUCLEATED RED BLOOD CELLS,"120 h, time 5 day",0 /100WBC
same,PLATELET COUNT,"120 h, time 5 day",1024.33 x10E3/uL
same,ALANINE AMINOTRANSFERASE,"120 h, time 5 day",34.33 u/L
same,ALBUMIN,"120 h, time 5 day",4.7 G/DL
same,ALKALINE PHOSPHATASE,"120 h, time 5 day",261 u/L
same,ASPARTATE AMINOTRANSFERASE,"120 h, time 5 day",61.33 u/L
same,BLOOD UREA NITROGEN,"120 h, time 5 day",17 mg/dL
same,CARBON DIOXIDE,"120 h, time 5 day",26.33 mmol/L
same,CHLORIDE,"120 h, time 5 day",109.33 MEQ/L
same,CHOLESTEROL,"120 h, time 5 day",127 mg/dL
same,CREATINE PHOSPHOKINASE,"120 h, time 5 day",232.33 u/L
same,CREATININE,"120 h, time 5 day",0.21 mg/dL
same,GLUCOSE,"120 h, time 5 day",140.33 mg/dL
same,LACTATE DEHYDROGENASE,"120 h, time 5 day",60.33 u/L
same,LIPASE,"120 h, time 5 day",9 u/L
same,PHOSPHORUS,"120 h, time 5 day",11.03 mg/dL
same,POTASSIUM,"120 h, time 5 day",6.28 MEQ/L
same,SODIUM,"120 h, time 5 day",148.93 MEQ/L
same,TOTAL BILIRUBIN,"120 h, time 5 day",0.2 mg/dL
same,TOTAL PROTEIN,"120 h, time 5 day",6.63 G/DL
same,URIC ACID,"120 h, time 5 day",1.83 mg/dL
